Tested on: HUVECs
Assay: 2D angiogenesis assay, HUVECs on the hydrogel surface
Assay type: cell-based, human
Method: Angiogenesis and vascularization assays were adopted to optimize hydrogels with RGD. For the two-dimensional (2D) culture of HUVECs, cells (4×10^4/well in a 96-well plate) were plated on the surface of HA hydrogels (40 μL; HA-SH: 4 mg/mL and PEGDA: 5 mg/mL) with various concentrations of RGD (0, 0.01, 0.1, and 1 mM). Matrigel was used as a positive control. After 24 h, HUVECs were imaged after LIVE/DEAD staining. As for the 3D cell culture, to avoid cell precipitation onto the surface of the plate, the plate was first coated with the hydrogels (40 μL hydrogel; HA-SH: 4 mg/mL, PEGDA: 2 mg/mL, F127-SS-DA: 4 mg/mL; RGD: 0, 0.10, 0.25, and 0.50 mM). Then, HUVECs and hASCs mixed with hydrogel precursor solutions (0.75×10^6/mL hydrogel; 40 μL hydrogel) were plated on top of hydrogels. In addition, both cells were cultured inside hydrogels with F127-SS-DA or F127-DA (40 μL; HA-SH: 4 mg/mL, PEGDA: 2 mg/mL, RGD: 0.1 mM; F127-DA or F127-SS-DA: 2, 4, 8, 10, 20, and 50 mg/mL). The cells were imaged after immunostaining for F-actin. […]
Cell viability was examined with a LIVE/DEAD staining kit and then the images were captured by a Zeiss LSM 880 laser scanning confocal microscope. The cell morphology was also evaluated by immunostaining with Alexa Fluor Phalloidin 568 or 488 for F-actin and 4′,6-diamidino-2-phenylindole dihydrochloride (DAPI, Molecular Probes) for cell nuclei.

RGD
endothelial cell layer on the hydrogel surface (RGD at 1 mM): supported the formation of a full layer of endothelial cells
endothelial cell adhesion (RGD conjugated to a hyaluronic acid-based hydrogel, FIG. 18): improved endothelial cell adhesion in a dose-dependent manner

Source: US20240138838A1, “SURFACE-MODIFIED ANASTOMOSIS DEVICE” (Washington University, priority 2022, published 2024)
